Target: purified LasB protein from P. aeruginosa (Pseudomonas aeruginosa (strain ATCC 15692 / DSM 22644 / CIP 104116 / JCM 14847 / LMG 12228 / 1C / PRS 101 / PAO1), UniProt P14756)
Test: Fluorometric assay to determine Ki (Abz-Ala-Gly-Leu-Ala-p-Nitro-Benzyl-Amide substrate)
Type: biochemical
Details: 250 μM substrate, Ki calculated from IC50
Description: Experiments were therefore conducted (1) to measure the potency of inhibition of compounds of the invention against purified Pseudomonas aeruginosa LasB enzyme and also experiments were conducted (2) to measure the ability of compounds of the invention to inhibit LasB-catalysed elastin degradation. The first assay uses a commercial fluorescent synthetic peptide and purified LasB enzyme. The LasB hydrolysis kinetics are measured allowing the determination of the IC50 and Ki of the inhibitors; the second is a more physiological assay using dialysed Pseudomonas aeruginosa supernatant as source of enzyme, plus its natural substrate Elastin. It is an “end point assay” that determines the percentage of LasB inhibition by each compound for one particular time point and inhibitor concentration. Technical details are described below:
Fluorometric Assay to Determine Ki
This assay uses commercially available substrate (Abz-Ala-Gly-Leu-Ala-p-Nitro-Benzyl-Amide (Ex: 340 nm, Em: 415 nm) from Peptide International) and purified LasB protein from P. aeruginosa (provided by Merck or Charles River Laboratories). It is performed to determine LasB elastase activity and assess compound inhibition in 96-well plate format. All compounds of Formula (I) were assessed using the method described below.
Method: 10 to 140 ng/ml purified LasB is incubated with 250 μM Abz-Ala-Gly-Leu-Ala-p-Nitro-Benzyl-Amide in 50 mM Tris-HCl pH 7.4, 2.5 mM CaCl2), 0.01% of Triton X100 at 37° C. LasB activity (corresponding to fluorescence emission induced by substrate hydrolysis) is measured over 30 min at 37° C. with a fluorescence plate reader such as the Perkin Elmer Envision or similar. Different range of inhibitor concentrations are routinely assessed depending of inhibitor potency from 0.0016 to 200 μM (2-fold dilutions series) in order to determine IC50.
The equation used to calculate the Ki from IC50 is: Ki=IC50/(1+([S]/Km)) where [S]=250 μM and Km=214 μM.

Sequence of purified LasB protein from P. aeruginosa (P14756 198-498): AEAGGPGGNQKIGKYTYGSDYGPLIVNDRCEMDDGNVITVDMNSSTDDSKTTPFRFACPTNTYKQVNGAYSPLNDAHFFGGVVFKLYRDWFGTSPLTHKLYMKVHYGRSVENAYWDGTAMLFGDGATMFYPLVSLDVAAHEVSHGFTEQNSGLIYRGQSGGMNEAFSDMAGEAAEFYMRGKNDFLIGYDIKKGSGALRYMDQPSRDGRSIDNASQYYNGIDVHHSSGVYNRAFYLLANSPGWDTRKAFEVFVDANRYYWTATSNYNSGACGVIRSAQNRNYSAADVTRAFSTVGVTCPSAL

| Compound | Ki [nM] |
| --- | --- |
| COc1cc2sc(CNC(=O)C3(CC(=O)O)Cc4ccccc4C3)nc2cc1OCCN1CCOCC1 [Example 9, 2-[2-[[6-methoxy-5-(2-morpholinoethoxy)-1,3-benzothiazol-2-yl]methylcarbamoyl]indan-2-yl]acetic Acid] | < 50 |
| COc1cc2sc(CNC(=O)C3(CC(=O)O)Cc4cc(F)c(F)cc4C3)nc2cc1OCCN1CCOCC1 [Example 10, 2-[5,6-difluoro-2-[[6-methoxy-5-(2-morpholinoethoxy)-1,3-benzothiazol-2-yl]methylcarbamoyl]indan-2-yl]acetic Acid] | < 50 |
| COc1cc2sc(CNC(=O)C3(CC(=O)O)Cc4cc(F)c(F)cc4C3)nc2cc1OCC1CCN(C)CC1 [Example 11, 2-[5,6-difluoro-2-[[6-methoxy-5-[(1-methyl-4-piperidyl)methoxy]-1,3-benzothiazol-2-yl]methylcarbamoyl]indan-2-yl]acetic Acid] | < 50 |
| COc1cc2sc(CNC(=O)C3(CC(=O)[O-])Cc4ccccc4C3)nc2cc1OCCC[N+]1(C)CCOCC1 [Example 16, 2-[2-[[6-methoxy-5-[3-(4-methylmorpholin-4-ium-4-yl)propoxy]-1,3-benzothiazol-2-yl]methylcarbamoyl]indan-2-yl]acetate] | < 50 |
| CC[N+](C)(CC)CCCOc1cc2nc(CNC(=O)C3(CC(=O)[O-])Cc4ccccc4C3)sc2cc1OC [Example 18, 2-[2-[[5-[3-[diethyl(methyl)ammonio]propoxy]-6-methoxy-1,3-benzothiazol-2-yl]methylcarbamoyl]indan-2-yl]acetate] | < 50 |
| COc1cc2sc(CNC(=O)C3(CC(=O)[O-])Cc4cc(F)c(F)cc4C3)nc2cc1OCCC[N+]1(C)CCCC1 [Example 19, 2-[5,6-difluoro-2-[[6-methoxy-5-[3-(1-methylpyrrolidin-1-ium-1-yl)propoxy]-1,3-benzothiazol-2-yl]methylcarbamoyl]indan-2-yl]acetate] | < 50 |
| COc1cc2sc(CNC(=O)C3(CC(=O)[O-])Cc4ccccc4C3)nc2cc1OCCC[N+](C)(C)CCO [Example 20, 2-[2-[[5-[3-[2-hydroxyethyl(dimethyl)ammonio]propoxy]-6-methoxy-1,3-benzothiazol-2-yl]methylcarbamoyl]indan-2-yl]acetate] | < 50 |
| COc1cc2sc(CNC(=O)C3(CC(=O)[O-])Cc4cc(F)c(F)cc4C3)nc2cc1OCCC[N+](C)(C)CCO [Example 21, 2-[5,6-difluoro-2-[[5-[3-[2-hydroxyethyl(dimethyl)ammonio]propoxy]-6-methoxy-1,3-benzothiazol-2-yl]methylcarbamoyl]indan-2-yl]acetate] | < 50 |
| COc1cc2sc(CNC(=O)C3(CC(=O)[O-])Cc4ccccc4C3)nc2cc1OCCC[N+](C)(CCO)CCO [Example 22, 2-[2-[[5-[3-[bis(2-hydroxyethyl)-methyl-ammonio]propoxy]-6-methoxy-1,3-benzothiazol-2-yl]methylcarbamoyl]indan-2-yl]acetate] | < 50 |
| COc1cc2sc(CNC(=O)C3(CC(=O)[O-])Cc4cc(F)c(F)cc4C3)nc2cc1OCCC[N+](C)(CCO)CCO [Example 23, 2-[2-[[5-[3-[bis(2-hydroxyethyl)-methyl-ammonio]propoxy]-6-methoxy-1,3-benzothiazol-2-yl]methylcarbamoyl]-5,6-difluoro-indan-2-yl]acetate] | < 50 |
| COc1cc2sc(CNC(=O)C3(CC(=O)O)Cc4ccccc4C3)nc2cc1C(=O)N1CCN(C)CC1 [Example 33, 2-[2-[[6-methoxy-5-(4-methylpiperazine-1-carbonyl)-1,3-benzothiazol-2-yl]methylcarbamoyl]indan-2-yl]acetic Acid] | < 50 |
| COc1cc2sc(CNC(=O)C3(CC(=O)O)Cc4ccccc4C3)nc2cc1C(=O)N1CC(N(C)C)C1 [Example 36, 2-[2-[[5-[3-(dimethylamino)azetidine-1-carbonyl]-6-methoxy-1,3-benzothiazol-2-yl]methylcarbamoyl]indan-2-yl]acetic Acid] | < 50 |
| COc1cc2sc(CNC(=O)C3(CC(=O)O)Cc4cc(F)c(F)cc4C3)nc2cc1C(=O)N1CC(N(C)C)C1 [Example 37, 2-[2-[[5-[3-(dimethylamino)azetidine-1-carbonyl]-6-methoxy-1,3-benzothiazol-2-yl]methylcarbamoyl]-5,6-difluoro-indan-2-yl]acetic Acid] | < 50 |
| COc1cc2sc(CNC(=O)C3(CC(=O)[O-])Cc4cc(F)c(F)cc4C3)nc2cc1OCC1CC[N+](C)(C)CC1 [Example 44, 2-[2-[[5-[(1,1-dimethylpiperidin-1-ium-4-yl)methoxy]-6-methoxy-1,3-benzothiazol-2-yl]methylcarbamoyl]-5,6-difluoro-indan-2-yl]acetate] | < 50 |

Tested on: Pseudomonas aeruginosa (PAO1)
Test: Mouse model of Pseudomonas aeruginosa lung infection
Type: in vivo
Details: mice infected with wild-type PAO1, intravenous 10 and 30 mg/kg at 1 h and 2 h post infection, 24 hours post infection (FIG. 2)
Description: Mice were dosed by intranasal inoculation of PA (PAO1), then sacrified after 24 hours. The extent of infection in the lung was quantified by bacterial load (CFU determination, colony forming units) and the levels of proinflammatory IL-1β. Statistical analysis on both readouts were performed by ANOVA with a Dunnett post-test.
Compounds were administered intravenously in a two-dose regimen (1 hour and 2 hours post infection) at two different doses (10 and 30 mg/kg).

| Compound | production and activation of IL-1β in the lung |
| --- | --- |
| COc1cc2sc(CNC(=O)C3(CC(=O)[O-])Cc4cc(F)c(F)cc4C3)nc2cc1OCCC[N+](C)(CCO)CCO [Example 23, 2-[2-[[5-[3-[bis(2-hydroxyethyl)-methyl-ammonio]propoxy]-6-methoxy-1,3-benzothiazol-2-yl]methylcarbamoyl]-5,6-difluoro-indan-2-yl]acetate] | inhibited the production and activation of IL-1β in mice infected by wild-type PA (PA01) at a similar level than the lasB deleted mutant |

Same assay, conditions: mice infected with wild-type PAO1, intravenous 10 and 30 mg/kg at 1 h and 2 h post infection, 24 hours post infection (FIG. 3)

| Compound | extent of infection in the lung (CFU levels) |
| --- | --- |
| COc1cc2sc(CNC(=O)C3(CC(=O)[O-])Cc4cc(F)c(F)cc4C3)nc2cc1OCCC[N+](C)(CCO)CCO [Example 23, 2-[2-[[5-[3-[bis(2-hydroxyethyl)-methyl-ammonio]propoxy]-6-methoxy-1,3-benzothiazol-2-yl]methylcarbamoyl]-5,6-difluoro-indan-2-yl]acetate] | reduced the extent of infection in the lung to the level of the LasB deleted mutant |
